Results on 15 molecules are retold here after ChEMBL document CHEMBL5321282, “Design, Synthesis, and Biological Evaluation of Esculetin-Furoxan-DEAC Ternary Hybrids for Anti-Triple Negative Breast Cancer” (J Med Chem, 2023).

One data set relates to MCF7. The data set can be described thus: Antiproliferative activity against human MCF7 cells assessed as inhibition of cell growth measured after 48 hrs by MTT assay. In kind it is functional, cell-based. To be noted: MCF7, 48 h. Background: Tetrazolium dyes change colour on reduction, which living cells bring about.
The test system of the next data set is HCT-116. The data set is described as follows: Antiproliferative activity against human HCT-116 cells assessed as inhibition of cell growth measured after 48 hrs by MTT assay. The format is functional, cell-based. To be noted: HCT-116, 48 h.
Data set [1] deals with MDA-MB-231. The data set can be described thus: Antiproliferative activity against human MDA-MB-231 cells assessed as inhibition of cell growth measured after 48 hrs by MTT assay. The format is functional, cell-based. To be noted: MDA-MB-231, 48 h.
The subject of the next data set is A549. The data set can be described thus: Antiproliferative activity against human A549 cells assessed as inhibition of cell growth measured after 48 hrs by MTT assay. The format is functional, cell-based. To be noted: A549, 48 h.
The test system of data set [2] is MDA-MB-231. The data set can be described thus: Antiproliferative activity against human MDA-MB-231 cells assessed as inhibition of cell growth measured after 48 hrs in presence of 3,4-bis(phenylsulfonyl)-1,2,5-oxadiazole 2-oxide by MTT assay. Particulars: MDA-MB-231, 48 h. In kind it is functional, cell-based.
The test system of data set [3] is MDA-MB-231. The data set can be described thus: Induction of apoptosis in human MDA-MB-231 cells assessed as increase in CypD level incubated for 8 hrs by Western blotting analysis. The format is functional, cell-based. Particulars: dose 5-20 nM. In general terms: Immunoblotting shows a protein as a band on a membrane.
Data set [4] deals with MDA-MB-231. The data set can be described thus: Induction of apoptosis in human MDA-MB-231 cells assessed as effect on ANT level at 20 nM incubated for 8 hrs by Western blotting analysis. The format is functional, cell-based.
Data set [5] in a line: Selectivity index, ratio of IC50 for cytotoxicity against human MCF-10A cells to IC50 for antiproliferative activity against human MDA-MB-231 cells. The format is toxicity, cell-based. To be noted: MCF-10A cells versus MDA-MB-231 cells, read-out: Ratio IC50.
The test system of data set [6] is MDA-MB-231. The data set is described as follows: Antiproliferative activity against human MDA-MB-231 cells assessed as effect on NO level at 25 uM incubated for 2 hrs. In kind it is functional, cell-based.
A short description of data set [7]: Selectivity index, ratio of IC50 for cytotoxicity against human L02 cells to IC50 for antiproliferative activity against human MDA-MB-231 cells. To be noted: L02 cells versus MDA-MB-231 cells, read-out: Ratio IC50. In kind it is toxicity, cell-based.
Data set [8] is described as follows: Cytotoxicity against human L02 cells assessed as inhibition in cell growth measured after 48 hrs by MTT assay. The format is toxicity, cell-based.
Data set [9] has as its system MDA-MB-231. The data set is described as follows: Antiproliferative activity against human MDA-MB-231 cells assessed as inhibition of cell growth measured after 48 hrs in presence of 7-(diethylamino)-2-oxo-2H-chromene-3-carboxylic acid by MTT assay. Particulars: MDA-MB-231, 48 h. The format is functional, cell-based.
Data set [10] can be described thus: Cytotoxicity against human MCF-10A cells assessed as inhibition in cell growth measured after 48 hrs by MTT assay. The format is toxicity, cell-based.
The nature of data set [11]: Toxicity in BALB/C mouse xenografted with human MDA-MB-231 cells assessed as change in body weight at 2.5 mg/kg, ip administered every 2 days measured after 3 weeks. In kind it is organism-based. To be noted: in vivo, 504 h. For orientation: Xenograft models place foreign cells or tissue in a host animal.

Each structure is given as a SMILES string. The source made the active and inactive calls. The calls are words filed in the database; no cut-off is given here.

With `O=c1ccc2cc(OCCCCCOc3no[n+]([O-])c3S(=O)(=O)c3ccccc3)c(OCCCCCOc3no[n+]([O-])c3S(=O)(=O)c3ccccc3)cc2o1`, the IC50 (in general, the concentration that gives 50% inhibition) in the data set on MCF7 is 2120 nM; in the data set on HCT-116 it was 3100 nM; in the data set on MDA-MB-231 [1], 100 nM; in the data set on A549, 2820 nM.

As to `O=c1ccc2cc(O)c(O)cc2o1` [ESCULETIN], the IC50 was greater than 50000 nM with MCF7; greater than 50000 nM in the data set with HCT-116; greater than 50000 nM in the data set with MDA-MB-231 [1]; greater than 50000 nM with A549; 7470 nM with MDA-MB-231 [2].

Regarding `CCN(CC)c1ccc2cc(C(=O)OCCCCCCOc3cc4ccc(=O)oc4cc3OCCCCCCOc3no[n+]([O-])c3S(=O)(=O)c3ccccc3)c(=O)oc2c1`, the IC50 in the data set with MCF7 came out at 2990 nM; in the data set on HCT-116, 9140 nM; with MDA-MB-231 [1] it was 108 nM; in the data set with A549, 4430 nM.

Turning to `O=c1ccc2cc(O)c(OCCCCCOc3no[n+]([O-])c3S(=O)(=O)c3ccccc3)cc2o1`, the concentration for half-maximal inhibition (IC50) in the data set on MCF7 was 7940 nM; in the data set on HCT-116 it was 4280 nM; in the data set on MDA-MB-231 [1] it was 2160 nM; in the data set with A549, 12800 nM.

Regarding `CCN(CC)c1ccc2cc(C(=O)OCCCCCCOc3no[n+]([O-])c3S(=O)(=O)c3ccccc3)c(=O)oc2c1`, the result in the data set on MDA-MB-231 [3] and in the data set on MDA-MB-231 [4] was inactive.

On to `O=c1ccc2cc(O)c(OCCCOc3no[n+]([O-])c3S(=O)(=O)c3ccccc3)cc2o1`, for which the half-inhibitory concentration (IC50) was 11300 nM with MCF7, 5970 nM in the data set with HCT-116, 2160 nM with MDA-MB-231 [1] and 12100 nM in the data set on A549.

Regarding `O=c1ccc2cc(O)c(OCCCCCCOc3no[n+]([O-])c3S(=O)(=O)c3ccccc3)cc2o1`, the IC50 worked out at 5300 nM in the data set on MCF7; 2690 nM in the data set on HCT-116; 130 nM in the data set on MDA-MB-231 [9]; 120 nM in the data set on MDA-MB-231 [1]; 12500 nM in the data set with A549. Besides, the selectivity ratio came out at 394 in data set [5] and 47.8 in data set [7]. Further, the outcome with MDA-MB-231 [6] was Active. Besides, the concentration for half-maximal inhibition (IC50) at 48 h stood at 5730 nM in data set [8] and 12600 nM in data set [10].

With `O=c1ccc2cc(OCCCCCCOc3no[n+]([O-])c3S(=O)(=O)c3ccccc3)c(OCCCCCCOc3no[n+]([O-])c3S(=O)(=O)c3ccccc3)cc2o1`, the IC50 in the data set on MCF7 is 10400 nM; in the data set on HCT-116, 2410 nM; in the data set on MDA-MB-231 [1], 148 nM; in the data set with A549, 3050 nM.

For the molecule `O=S(=O)(c1ccccc1)c1no[n+]([O-])c1S(=O)(=O)c1ccccc1`, the 50% inhibitory concentration (IC50) in the data set with MDA-MB-231 [1] worked out at 7910 nM.

For `CCN(CC)c1ccc2cc(C(=O)OCCCCOc3cc4ccc(=O)oc4cc3OCCCCCCOc3no[n+]([O-])c3S(=O)(=O)c3ccccc3)c(=O)oc2c1`, the IC50 in the data set with MCF7 came to 2440 nM; with HCT-116 it was 3750 nM; with MDA-MB-231 [1], 53 nM; in the data set on A549 it was 1610 nM.

As to `CCN(CC)c1ccc2cc(C(=O)OCCCOc3cc4ccc(=O)oc4cc3OCCCCCCOc3no[n+]([O-])c3S(=O)(=O)c3ccccc3)c(=O)oc2c1`, the IC50 turned out to be 1060 nM in the data set on MCF7, 3260 nM in the data set on HCT-116, 53 nM in the data set on MDA-MB-231 [1] and 2260 nM in the data set with A549.

In the case of `O=c1ccc2cc(OCCCOc3no[n+]([O-])c3S(=O)(=O)c3ccccc3)c(OCCCOc3no[n+]([O-])c3S(=O)(=O)c3ccccc3)cc2o1`, the IC50 turned out to be 2330 nM in the data set with MCF7, 1120 nM with HCT-116, 58 nM with MDA-MB-231 [1] and 1960 nM with A549.

Take `COc1cccc2c1C(=O)c1c(O)c3c(c(O)c1C2=O)C[C@@](O)(C(=O)CO)C[C@@H]3O[C@H]1C[C@H](N)[C@H](O)[C@H](C)O1` [DOXORUBICIN]: the IC50 with MCF7 was determined as 740 nM; in the data set on HCT-116, 150 nM. Further, in data set [11], the Activity entry is “Non-Toxic”. Also, the concentration for half-maximal inhibition (IC50) at 48 h in data set [8] turned out to be 600 nM; in data set [10], 740 nM.

On to `O=c1ccc2cc(OCCCCOc3no[n+]([O-])c3S(=O)(=O)c3ccccc3)c(OCCCCOc3no[n+]([O-])c3S(=O)(=O)c3ccccc3)cc2o1`, for which the IC50 in the data set with MCF7 amounted to 3700 nM; with HCT-116, 2030 nM; with MDA-MB-231 [1], 42 nM; with A549, 1210 nM. For the same molecule, the selectivity ratio was 153 in [5] and 134 in [7]. Moreover, the outcome in the data set on MDA-MB-231 [6] was Active. For the same molecule, the figures for the half-inhibitory concentration (IC50) at 48 h in [8] and in data set [10] were 5640 nM and 6440 nM, respectively.

In the case of `O=c1ccc2cc(O)c(OCCCCOc3no[n+]([O-])c3S(=O)(=O)c3ccccc3)cc2o1`, the IC50 with MCF7 was 8710 nM; in the data set with HCT-116, 5020 nM; with MDA-MB-231 [1], 1990 nM; with A549, 11800 nM.
